The target of test [1] is T1, human progesterone receptor A (Homo sapiens, UniProt P06401).
T1 construct: expressed in transfected cells; host or cells: SK-N-MC human neuroblastoma cells, stably transfected with pRChPR-A-neo and pMMTV-LUC
T1 sequence (P06401 1-769 isoform P06401-2): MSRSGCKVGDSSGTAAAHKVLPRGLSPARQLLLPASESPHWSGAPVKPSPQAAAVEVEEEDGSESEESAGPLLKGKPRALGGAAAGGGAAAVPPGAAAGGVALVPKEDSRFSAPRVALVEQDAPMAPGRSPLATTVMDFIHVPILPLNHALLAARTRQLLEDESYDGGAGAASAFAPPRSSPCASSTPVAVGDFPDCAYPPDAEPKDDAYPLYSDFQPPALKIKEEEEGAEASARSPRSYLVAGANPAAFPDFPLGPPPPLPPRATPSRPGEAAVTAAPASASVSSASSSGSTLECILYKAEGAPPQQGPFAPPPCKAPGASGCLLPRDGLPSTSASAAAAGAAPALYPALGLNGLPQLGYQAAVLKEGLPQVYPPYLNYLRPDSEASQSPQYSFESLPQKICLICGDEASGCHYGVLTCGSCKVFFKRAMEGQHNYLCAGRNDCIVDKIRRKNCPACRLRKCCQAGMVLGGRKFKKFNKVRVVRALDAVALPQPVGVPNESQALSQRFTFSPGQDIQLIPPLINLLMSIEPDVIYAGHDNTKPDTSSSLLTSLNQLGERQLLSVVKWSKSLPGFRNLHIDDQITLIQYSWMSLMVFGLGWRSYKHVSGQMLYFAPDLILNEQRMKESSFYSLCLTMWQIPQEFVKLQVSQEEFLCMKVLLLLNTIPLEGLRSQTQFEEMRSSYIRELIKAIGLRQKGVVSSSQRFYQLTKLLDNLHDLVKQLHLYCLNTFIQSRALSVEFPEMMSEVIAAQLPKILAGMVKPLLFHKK
In words: Progesterone receptor-antagonistic action in stably transfected SK-N-MC cells with MMTV-LUC reporter (PR-A). Type of test: cell-based. The settings on record: antagonistic potency against 0.1 nmol/l promegestone, 24 hours, luciferase. As for the experimental part: (§1) Determination of Progesterone Receptor-Antagonistic Action in Stable Transfectants of Human Neuroblastoma Cells (SK-N-MC Cells) with the Human Progesterone A or Progesterone B Receptor and an MN-LUC Reporter Construct
(§2) SK-N-MC cells (human neuroblastoma cells) which have been stably transfected with plasmids expressing the human progesterone receptor B (pRChPR-B-neo) or the human progesterone receptor A (pRChPR-A-neo) and a reporter construct (pMMTV-LUC) were incubated for 24 hours either in the absence (negative control) or in the presence of ascending amounts of the particular test compound (0.01 nmol/l, 0.1 nmol/l, 1 nmol/l, 10 nmol/l, 100 nmol/l and […]), in order to determine the agonistic efficacy. As a positive control of the reporter gene induction, the cells were treated with the synthetic gestagen promegestone (0.01 nmol/l, 0.1 nmol/l, 1 nmol/l, 10 nmol/l, 100 nmol/l and […]). To determine the antagonistic activity, the cells were treated with 0.1 nmol/l promegestone and additionally with ascending amounts of the particular test compound (0.01 nmol/l, 0.1 nmol/l, 1 nmol/l, 10 nmol/l, 100 nmol/l and […]). The activity of the reporter gene LUC (LUC=luciferase) was determined in the cell lysates and measured as RLU (relative light units). All measurements are reported as % efficacy and as EC50 and IC50 concentrations.

The target of test [2] is T2, human progesterone receptor B (Homo sapiens, UniProt P06401).
T2 construct: expressed in transfected cells; host or cells: SK-N-MC human neuroblastoma cells, stably transfected with pRChPR-B-neo and pMMTV-LUC
T2 sequence (P06401 1-933): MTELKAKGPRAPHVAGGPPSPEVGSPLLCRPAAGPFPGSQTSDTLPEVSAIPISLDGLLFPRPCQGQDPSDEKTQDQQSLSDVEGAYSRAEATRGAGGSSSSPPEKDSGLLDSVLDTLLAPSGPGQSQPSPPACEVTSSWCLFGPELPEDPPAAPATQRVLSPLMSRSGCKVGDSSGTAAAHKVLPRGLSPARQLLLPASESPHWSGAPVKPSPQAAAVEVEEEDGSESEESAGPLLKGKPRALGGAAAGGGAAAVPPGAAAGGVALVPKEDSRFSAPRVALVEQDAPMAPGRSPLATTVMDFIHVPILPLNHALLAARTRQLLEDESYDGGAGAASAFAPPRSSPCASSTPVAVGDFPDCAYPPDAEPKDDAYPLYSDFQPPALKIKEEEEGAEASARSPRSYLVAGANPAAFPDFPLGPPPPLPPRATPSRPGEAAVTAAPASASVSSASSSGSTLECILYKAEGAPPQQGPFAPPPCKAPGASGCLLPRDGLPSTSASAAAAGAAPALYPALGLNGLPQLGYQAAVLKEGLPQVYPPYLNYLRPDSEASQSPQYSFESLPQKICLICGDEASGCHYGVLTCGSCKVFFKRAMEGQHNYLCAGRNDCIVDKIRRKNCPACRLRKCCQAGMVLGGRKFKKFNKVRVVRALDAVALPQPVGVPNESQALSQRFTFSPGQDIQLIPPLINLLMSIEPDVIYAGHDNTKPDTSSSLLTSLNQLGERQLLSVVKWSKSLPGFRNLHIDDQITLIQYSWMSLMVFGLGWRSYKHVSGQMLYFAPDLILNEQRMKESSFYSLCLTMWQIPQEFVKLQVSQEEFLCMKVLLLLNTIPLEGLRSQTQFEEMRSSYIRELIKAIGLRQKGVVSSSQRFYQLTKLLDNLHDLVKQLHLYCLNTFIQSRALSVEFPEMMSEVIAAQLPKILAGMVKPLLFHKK
The experiment in a line: Progesterone receptor-antagonistic action in stably transfected SK-N-MC cells with MMTV-LUC reporter (PR-B). The class given is cell-based. The conditions noted are these: antagonistic potency against 0.1 nmol/l promegestone, 24 hours, luciferase. As for the experimental part:
as §1, §2

Structures are written as SMILES.

A word on the IC50: it is the point on the concentration scale where inhibition reaches its midpoint. Read a low IC50 as greater potency in that assay.

Consider `Cc1noc(C)c1NC(=O)NC/C=C/c1ccc([C@H]2C[C@@]3(C)[C@@H](CC[C@@]3(O)C(F)(F)C(F)(F)F)[C@@H]3CCC4=CC(=O)CCC4=C32)cc1` [Example 48, 1-(3,5-dimethylisoxazol-4-yl)-3-{(E)-3-[4-((8S,11R,13S,14S,17S)-17-hydroxy-13-methyl-3-oxo-17-pentafluoroethyl-2,3,6,7,8,11,12,13,14,15,16,17-dodecahydro-1H-cyclopenta[a]phenanthren-11-yl)phenyl]allyl}urea], for which the half-inhibitory concentration (IC50) in test [1] is 0.09 nM; in test [2], 0.03 nM.
`CCOC(=O)CCNC(=O)NC/C=C/c1ccc([C@H]2C[C@@]3(C)C(CC[C@@]3(O)C(F)(F)C(F)(F)F)C3CCC4=CC(=O)CCC4=C32)cc1` (stereo partly drawn) [Example 49, (3-{(E)-3-[4-((8S,11R,13S,14S,17S)-17-hydroxy-13-methyl-3-oxo-17-pentafluoroethyl-2,3,6,7,8,11,12,13,14,15,16,17-dodecahydro-1H-cyclopenta[a]phenanthren-11-yl)phenyl]allyl}ureido)propionic acid ethyl ester]: the IC50 in test [1] was 0.1 nM; in test [2] it was 0.3 nM.
The like results for `C[C@]12C[C@H](c3ccc(/C=C/CNC(=O)NCCC(=O)O)cc3)C3=C4CCC(=O)C=C4CCC3C1CC[C@@]2(O)C(F)(F)C(F)(F)F` (stereo partly drawn) [Example 50, (3-{(E)-3-[4-((8S,11R,13S,14S,17S)-17-hydroxy-13-methyl-3-oxo-17-pentafluoroethyl-2,3,6,7,8,11,12,13,14,15,16,17-dodecahydro-1H-cyclopenta[a]phenanthren-11-yl)phenyl]allyl}ureido)propionic acid] were, in that order, 8 nM and 3 nM.
Regarding `CCOC(=O)CNC(=O)NC/C=C/c1ccc([C@H]2C[C@@]3(C)C(CC[C@@]3(O)C(F)(F)C(F)(F)F)C3CCC4=CC(=O)CCC4=C32)cc1` (stereo partly drawn) [Example 51, 3-(3-{(E)-3-[4-((8S,11R,13S,14S,17S)-17-hydroxy-13-methyl-3-oxo-17-pentafluoroethyl-2,3,6,7,8,11,12,13,14,15,16,17-dodecahydro-1H-cyclopenta[a]phenanthren-11-yl)phenyl]allyl}ureido)acetic acid ethyl ester], the half-maximal inhibitory concentration (IC50) in test [1] and in test [2] was 0.1 nM in each case.
`C[C@]12C[C@H](c3ccc(/C=C/CNC(=O)NCC(=O)O)cc3)C3=C4CCC(=O)C=C4CCC3C1CC[C@@]2(O)C(F)(F)C(F)(F)F` (stereo partly drawn) [Example 52, 3-(3-{(E)-3-[4-((8S,11R,13S,14S,17S)-17-hydroxy-13-methyl-3-oxo-17-pentafluoroethyl-2,3,6,7,8,11,12,13,14,15,16,17-dodecahydro-1H-cyclopenta[a]phenanthren-11-yl)phenyl]allyl}ureido)acetic acid]: the IC50 in test [1] came to 3 nM; in test [2], 2 nM.
In the same order, the values of `C[C@]12C[C@H](c3ccc(/C=C/CNC(=O)Nc4ccc(Cl)cc4)cc3)C3=C4CCC(=O)C=C4CC[C@H]3[C@@H]1CC[C@@]2(O)C(F)(F)C(F)(F)F` [Example 53, 1-(4-chlorophenyl)-3-{(E)-3-[4-((8S,11R,13S,14S,17S)-17-hydroxy-13-methyl-3-oxo-17-pentafluoroethyl-2,3,6,7,8,11,12,13,14,15,16,17-dodecahydro-1H-cyclopenta[a]phenanthren-11-yl)phenyl]allyl}urea] are 0.1 nM and 0.2 nM.
The like results for `CCOC(=O)c1ccc(NC(=O)NC/C=C/c2ccc([C@H]3C[C@@]4(C)[C@@H](CC[C@@]4(O)C(F)(F)C(F)(F)F)[C@@H]4CCC5=CC(=O)CCC5=C43)cc2)cc1` [Example 55, 4-(3-{(E)-3-[4-((8S,11R,13S,14S,17S)-17-hydroxy-13-methyl-3-oxo-17-pentafluoroethyl-2,3,6,7,8,11,12,13,14,15,16,17-dodecahydro-1H-cyclopenta[a]phenanthren-11-yl)phenyl]allyl}ureido)benzoic acid ethyl ester] were, in that order, 0.1 nM and 0.09 nM.

Source of the values: patent publication US9156877B2, “17-hydroxy-17-pentafluorethyl-estra-4,9(10)-dien-11-benzylidene derivatives, methods for the production thereof and use thereof for treating diseases” (Bayer Intellectual Property GmbH, priority 2009, dated 2015).
